Results as given in patent US20250230244A1, “METHODS AND COMPOSITIONS COMPRISING B7-H3 BINDING POLYPETIDES” (BOARD OF REGENTS, THE UNIVERSITY OF TEXAS SYSTEM, priority 2021, published 2025).

Assays:
[1] = tested on: AML cell lines (OCI-AML3, MV4-11, and U937); experiment: NK cell ADCC, annexin V binding, Incucyte, AML cell lines; type: cell-based, human
Description: For live-cell apoptosis analysis, the inventors stained OCI-AML3, MV4-11, U937, and primary cells with CytoLight Red (#4482; Essen BioScience). […] Time-lapse fluorescence imaging was performed using an Incucyte live-cell imaging system (Essen BioScience) to assess apoptosis induction every 1 hour for 20-48 hours. The apoptosis in leukemic cells was measured by green and red overlap counts.
Rituximab is a chimeric anti-CD20 antibody that was used as a non-specific control antibody. NK cell-induced apoptosis was measured by annexin V binding assay using the Incucyte live-cell imaging system. […] Representative images of OCI-AML3 cells undergoing apoptosis at different time points in different treatment conditions are shown in FIG. 12A.

[2] = tested on: BC cell lines (MCF7 and HCC38); experiment: NK cell-mediated ADCC in breast cancer cell lines; type: cell-based, human; details: 10 μg/mL
Text: Rituximab is a chimeric anti-CD20 antibody that was used as a nonspecific control antibody.

## rituximab [reference compound]
[1]; 1, 5, and 10 μg/mL, with NK cells, 8:1 ratio
  apoptosis of leukemic cells (NK cell ADCC): did not show significant outcomes
[1]; antibody alone
  killing of leukemic cells, antibody alone, at 28 and 22 hours: no effect on killing leukemic cells
[2]; with NK cells, 15:1 NK-to-target cell ratio
  apoptosis in BC cells (ADCC): did not show significant outcomes
[2]; without NK cells
  killing of BC cells, antibody alone, after 10 hours: did not affect the killing of BC cells
